Marks after values point to notes of the source that are not given here. One block for each compound: values may come before it.
Assays:
enzyme of SEQ ID NO:5 [1] = test: Screening of carbonyl-containing compounds with ammonia as amine source (specific activity, absorbance at 340 nm); format: biochemical, Mycobacterium vaccae ATCC 25954; details: mixture NADH/NADPH (0.1 mM each), 5 mM of carbonyl-containing compound
Experimental: (§1) All the reactions were conducted at 25° C. in spectrophotometric cell (10 mm light path). […] Carbonyl-containing compound (5 or 10 mM) is then added to initiate the reaction (reaction final volume 100 μL). The initial slope measured at 340 nm determined the specific activity of the enzyme according to Beer-Lambert's law and the molar absorptivity of β-NADH (ϵ=6298 M^−1 cm^−1).

enzyme of SEQ ID NO:4 = test: as above; format: biochemical, Aminomonas paucivorans DSM 12260; design: key to Detection of the expected compound, SEQ ID NO: 4: d: detected activity; nd: not detected activity; details: ammonia as amine source; for Specific activity, SEQ ID NO: 4: 0.2 mM NADH (best of NADH/NADPH), 10 mM of carbonyl-containing compound; for Detection of the expected compound, SEQ ID NO: 4: pH 9.5, 25° C.
Experimental: (§2) All the reactions were conducted at 25° C. in spectrophotometric cell (10 mm light path). To a mixture of ammonium formate buffer (2 M NH4HCO2/NH4OH, pH 9.5), NADH or NADPH (0.2 mM) and an appropriate amount of purified enzyme was added. Carbonyl-containing compound (5 or 10 mM) is then added to initiate the reaction (reaction final volume 100 μL). The initial slope measured at 340 nm determined the specific activity of the enzyme according to Beer-Lambert's law and the molar absorptivity of β-NADH (ϵ=6298 M^−1 cm^−1).

enzyme of SEQ ID NO:1 [2] = test: as above; format: biochemical, Mycobacterium smegmatis; details: 10 mM of carbonyl-containing compound, ammonia as amine source
Experimental: (§3) All the reactions were conducted at 25° C. in spectrophotometric cell (10 mm light path). To a mixture of ammonium formate buffer (2 M NH4HCO2/NH4OH, pH 9.5), NADH or NADPH (0.2 mM) and an appropriate amount of purified enzyme was added.

enzyme of SEQ ID NO:2 = test: as above; format: biochemical, Cystobacter fuscus DSM 2262; details: 10 mM of carbonyl-containing compound, ammonia as amine source
Experimental: as §3

enzyme of SEQ ID NO:3 [3] = test: as above; format: biochemical, Microbacterium sp. MA1; details: 10 mM of carbonyl-containing compound, ammonia as amine source
Experimental: as §3

enzyme of SEQ ID NO:6 = test: as above; format: biochemical, Mycobacterium sp. GA-2829; details: mixture NADH/NADPH (0.1 mM each), 10 mM of carbonyl-containing compound
Experimental: as §1

enzyme of SEQ ID NO:1 [4] = test: Screening of carbonyl-containing compounds with methylamine as amine source; format: biochemical, Mycobacterium smegmatis; details: preliminary
Experimental: as §2, with “of TRIS.HCl” for “of ammonium formate”, “buffer (50 mM,” for “buffer (2 M NH4HCO2/NH4OH,”, “NADH and” for “NADH or”, “NADPH (0.1 mM each), methylamine (500” for “NADPH (0.2”, “(5” for “(5 or 10”

enzyme of SEQ ID NO:3 [5] = test: as above; format: biochemical, Microbacterium sp. MA1; details: preliminary
Experimental: as §2, with “of TRIS.HCl” for “of ammonium formate”, “buffer (50 mM,” for “buffer (2 M NH4HCO2/NH4OH,”, “NADH and” for “NADH or”, “NADPH (0.1 mM each), methylamine (500” for “NADPH (0.2”, “(5” for “(5 or 10”

enzyme of SEQ ID NO:5 [6] = test: as above; format: biochemical, Mycobacterium vaccae ATCC 25954; details: preliminary
Experimental: as §2, with “of TRIS.HCl” for “of ammonium formate”, “buffer (50 mM,” for “buffer (2 M NH4HCO2/NH4OH,”, “NADH and” for “NADH or”, “NADPH (0.1 mM each), methylamine (500” for “NADPH (0.2”, “(5” for “(5 or 10”

Bbad-AmDH = details: as described in Pushpanath et al.; cited from earlier work
Cal-AmDH = details: as described in Pushpanath et al.; cited from earlier work
PheDH-AmDH K77S/N276L = PheDH-AmDH K77S/N276L (Pseudobacillus badius, UniProt Q59224, K78S/N277L); details: prior-art engineered enzyme; cited from earlier work
[7] = 0.2 mM NADPH (best of NADH/NADPH)
[8] = 0.2 mM NADH (best of NADH/NADPH)
[9] = 0.2 mM NADH (best of NADH/NADPH), listed as drawing 130
[10] = methylamine (500 mM) as amine source, NADH/NADPH (0.1 mM each), carbonyl-containing compound 5 mM

Sequence of PheDH-AmDH K77S/N276L (Q59224 whole entry K78S/N277L): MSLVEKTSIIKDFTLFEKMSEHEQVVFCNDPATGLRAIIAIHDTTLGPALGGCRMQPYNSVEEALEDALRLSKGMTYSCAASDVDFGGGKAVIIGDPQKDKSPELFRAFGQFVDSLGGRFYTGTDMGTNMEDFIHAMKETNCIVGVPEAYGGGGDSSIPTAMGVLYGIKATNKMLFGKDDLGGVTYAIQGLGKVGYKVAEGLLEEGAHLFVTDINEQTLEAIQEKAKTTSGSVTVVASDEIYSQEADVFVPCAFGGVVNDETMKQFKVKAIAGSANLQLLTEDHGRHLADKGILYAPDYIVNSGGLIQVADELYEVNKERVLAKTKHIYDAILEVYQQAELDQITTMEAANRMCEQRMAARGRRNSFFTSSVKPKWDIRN

Specific activity, SEQ ID NO: 4 (enzyme of SEQ ID NO:4): 129.6^a mU.mg^-1 | Detection of the expected compound, SEQ ID NO: 4 (enzyme of SEQ ID NO:4): d
SMILES: CCC(C)C=O (stereo not drawn) [drawing 124]

Specific activity, SEQ ID NO: 1 (enzyme of SEQ ID NO:1 [2]; [7]): 26.8^b mU.mg^-1 | Specific activity, SEQ ID NO: 2 (enzyme of SEQ ID NO:2; [7]): 72.9^b mU.mg^-1 | Specific activity, SEQ ID NO: 3 (enzyme of SEQ ID NO:3 [3]; [7]): 57.8^b mU.mg^-1
SMILES: CCCCC=O [drawing 146]

Specific activity, SEQ ID NO: 1 (enzyme of SEQ ID NO:1 [2]; [7]): 5.6^b mU.mg^-1 | Specific activity, SEQ ID NO: 2 (enzyme of SEQ ID NO:2; [7]): 24.2^b mU.mg^-1 | Specific activity, SEQ ID NO: 3 (enzyme of SEQ ID NO:3 [3]; [7]): 60.6^b mU.mg^-1
SMILES: O=C1CCCC1

Specific activity, SEQ ID NO: 1 (enzyme of SEQ ID NO:1 [2]; [7]): 7.4^b mU.mg^-1 | Specific activity, SEQ ID NO: 2 (enzyme of SEQ ID NO:2; [8]): 2.5^a mU.mg^-1 | Specific activity, SEQ ID NO: 3 (enzyme of SEQ ID NO:3 [3]; [7]): 37.1^b mU.mg^-1
SMILES: O=C1C=CCCC1

Specific activity, SEQ ID NO: 1 (enzyme of SEQ ID NO:1 [2]; [7]): 7.7^b mU.mg^-1 | Specific activity, SEQ ID NO: 2 (enzyme of SEQ ID NO:2; [7]): 13.9^b mU.mg^-1 | Specific activity, SEQ ID NO: 3 (enzyme of SEQ ID NO:3 [3]; [7]): 23.3^b mU.mg^-1
SMILES: CC1CCC(=O)C1 (stereo not drawn)

Specific activity, SEQ ID NO: 1 (enzyme of SEQ ID NO:1 [2]; [7]): 125.8^b mU.mg^-1 | Specific activity, SEQ ID NO: 2 (enzyme of SEQ ID NO:2; [8]): 68.2^a mU.mg^-1 | Specific activity, SEQ ID NO: 3 (enzyme of SEQ ID NO:3 [3]; [7]): 245.6^b mU.mg^-1
SMILES: CC(=O)C(C)C

Specific activity, SEQ ID NO: 4 (enzyme of SEQ ID NO:4): 89.1^a mU.mg^-1 | Detection of the expected compound, SEQ ID NO: 4 (enzyme of SEQ ID NO:4): d
SMILES: CCCCC=O [drawing 122]

The next lines start with the compound.

SMILES: CCCC(C)=O [drawing 170]
Specific activity, SEQ ID NO: 5 (enzyme of SEQ ID NO:5 [1]): 6.1 mU.mg^-1

SMILES: O=C1CCCCC1 [drawing 120]
Specific activity, SEQ ID NO: 4 (enzyme of SEQ ID NO:4): 9.82^a mU.mg^-1 | Detection of the expected compound, SEQ ID NO: 4 (enzyme of SEQ ID NO:4): d

SMILES: CCC(=O)CC
Specific activity, SEQ ID NO: 1 (enzyme of SEQ ID NO:1 [2]; [7]): 48.2^b mU.mg^-1 | Specific activity, SEQ ID NO: 2 (enzyme of SEQ ID NO:2; [7]): 3.6^b mU.mg^-1 | Specific activity, SEQ ID NO: 3 (enzyme of SEQ ID NO:3 [3]; [7]): 192.0^b mU.mg^-1

SMILES: CC(=O)C(C)O (stereo not drawn)
Specific activity, SEQ ID NO: 1 (enzyme of SEQ ID NO:1 [2]; [7]): 177.7^b mU.mg^-1 | Specific activity, SEQ ID NO: 2 (enzyme of SEQ ID NO:2; [7]): 42.4^b mU.mg^-1 | Specific activity, SEQ ID NO: 3 (enzyme of SEQ ID NO:3 [3]; [7]): 324.4^b mU.mg^-1

SMILES: O=C1CCCCC1 [drawing 168]
Specific activity, SEQ ID NO: 5 (enzyme of SEQ ID NO:5 [1]): 75.6 mU.mg^-1 | Specific activity, SEQ ID NO: 6 (enzyme of SEQ ID NO:6): 13.9 mU.mg^-1

SMILES: O=C1CCCCC1 [cyclohexanone]
Specific activity, SEQ ID NO: 1 (enzyme of SEQ ID NO:1 [2]; [8]): 196.2 mU.mg^-1 | Specific activity, SEQ ID NO: 1 (enzyme of SEQ ID NO:1 [2]; [9]): 196.2^a mU.mg^-1 | Specific activity, SEQ ID NO: 2 (enzyme of SEQ ID NO:2; [8]): 135.9 mU.mg^-1 | Specific activity, SEQ ID NO: 2 (enzyme of SEQ ID NO:2; [9]): 135.9^a mU.mg^-1 | Specific activity, SEQ ID NO: 3 (enzyme of SEQ ID NO:3 [3]; [8]): 614.5 mU.mg^-1 | Specific activity, SEQ ID NO: 3 (enzyme of SEQ ID NO:3 [3]; [9]): 614.5^a mU.mg^-1 | Specific activity, SEQ ID NO: 1 (enzyme of SEQ ID NO:1 [4]; [10]): 10.1 mU.mg-^1 | activity of enzyme of SEQ ID NO:1 on the substrate with methylamine (in words) (enzyme of SEQ ID NO:1 [4]; methylamine as amine source): active | Specific activity, SEQ ID NO: 3 (enzyme of SEQ ID NO:3 [5]; [10]): 90.4 mU.mg-^1 | activity of enzyme of SEQ ID NO:3 on the substrate with methylamine (in words) (enzyme of SEQ ID NO:3 [5]; methylamine as amine source): active | Specific activity, SEQ ID NO: 5 (enzyme of SEQ ID NO:5 [6]; [10]): 12.6 mU.mg-^1 | activity of enzyme of SEQ ID NO:5 on the substrate with methylamine (in words) (enzyme of SEQ ID NO:5 [6]; methylamine as amine source): active | specific activity of Bbad-AmDH (Bbad-AmDH): 11.3 mU·mg^−1 | specific activity of Cal-AmDH (Cal-AmDH): 12.7 mU·mg^−1 | specific activity of PheDH-AmDH K77S/N276L (PheDH-AmDH K77S/N276L): 27 mU·mg^−1

Source: patent publication US11118200B2, “Method for preparing amines from aldehydes and ketones by biocatalysis” (COMMISSARIAT A L'ENERGIE ATOMIQUE ET AUX ENERGIES …, priority 2017, dated 2021)
